Results on five compounds are retold here after patent US7709454B2, “Methods and compositions for inhibiting tumorigenesis” (New York University, priority 1997, dated 2010).

Where two headings read alike, the source gives them in different places.

In assay [1] the test system is Nude Harlan Sprague-Dawley Mice/lung (A-549, Calu-1) tumors. Particulars: cited from earlier work.
The test system of the next assay is A/J mice lung adenomas. Particulars: 50 mg/kg/d; cited from earlier work.
A further assay deals with Glioma cell lines. Particulars: cited from earlier work.
The subject of another assay is Rat-1 cells. The conditions noted are these: cited from earlier work.
For assay [2], the system named is Human melanoma cell lines. The conditions noted are these: cited from earlier work.
Assay [3] has as its system SCID mice/melanoma (518A2, 607B). The conditions noted are these: cited from earlier work.
Assay [4] deals with Various human tumor cell lines. Particulars: cited from earlier work.
For assay [5], the system named is human melanoma primary cultures and cell lines. In words: BrdU incorporation in melanoma primary cultures and cell lines. Type of assay: cell-based. Particulars: 48 h; all four melanoma cell lines tested and Me-3. Here is the method: Human foreskin melanocytes (Promocell) were grown in serum-free M2 medium (Promocell). WM-115, SK-MEL-2, SK-MEL-5, MeWo and COS7 cell lines (ATCC) were grown as specified. Tumors were chopped, incubated in E-MEM (Sigma) containing collagenase A (300 U/ml, Worthington) and hyaluronidase (100 U/ml, Sigma), mechanically dissociated and plated in E-MEM with 10% FBS, 1 mM sodium pyruvate (GIBCO) and 1 ng/ml EGF (GIBCO). […] All melanoma samples and BCC were obtained following approved protocols.
(§1) Commercial N-SHH (R&D Systems) was used at 100 nM. 5E1 anti-SHH blocking antibody (Hybridoma Bank, University of Iowa) was used at 10 μg/ml. Forskolin (FK) and 1,9-dideoxyforskolin (ddFK; Sigma) were used at 50 μM. […] MEK-1 (U0126; Promega), EGFR (AG1478; Biosource) and AKT (SH6; Alexis corporation) inhibitors were used at 1, 10, and 40 μM, respectively, dissolved in DMSO. Drug treatments were for 48 h in 2.5% serum. BrdU (Sigma) was pulsed at 4 μg/ml for 2 h before fixation followed by immunodetection with anti-BrdU antibodies (BD Biosciences). The number of viable cells was assessed by Trypan blue exclusion (Promega).

Assay [6] concerns GLI1, PTCH1, BMI1, FOXM1, MITFM expression. Description: qPCR gene expression in melanoma cultures. It counts as cell-based, human. The conditions noted are these: 4 h after inhibitor; all cultures. The protocol: Real-time quantitative PCR amplifications with different primers (Suppl. Materials) were carried out at 60° C. on an Opticon machine (MJ Research) using iQ™ SYBR Green supermix (Biorad) and values calculated using the standard curve method.
as §1

For assay [7], the system named is GLI1-transfected WM-115, SK-MEL-2 and SK-MEL-5. Description: GLI1-transfection enhanced BrdU incorporation, treatment with inhibitors. The conditions noted are these: 48 h treatment. It counts as cell-based, human. The protocol: as §1
The test system of assay [8] is frog GLI1, frog Gli2, human GLI3 proteins. In words: localization of Myc-tagged GLI proteins in transfected COS7 cells. Type of assay: cell-based. Here is the method: (§2) Cells were transfected (3 μg/p35 plate) with myc-tagged full-length CMV expression vectors for human GLI1 (Lee, J., Platt, K. A., Censullo, P. & Ruiz i Altaba, A. Gli1 is a target of Sonic hedgehog that induces ventral neural tube development. Development 124, 2537-2552 (1997)), HRAS-V12 (kindly provided by Dr. A. Pellicer, NYU) and LacZ with FUGENE (Roche). For selection, SK-MEL-2 and MeWo cells were transfected (4 μg/p60 plate) with PGK-neo and CMV-eGFP alone or in a 1/1/8 ratio with HRAS-12G, GLI3C′ΔClaI (Ruiz i Altaba 1999) or (frog) fGli2C′Δ (Ruiz i Altaba 1999), or in a 1/1/4/4 ratio with HRAS-12G/GLI3C′ΔClaI or HRAS-12G/fGli2C′Δ. After Geneticin (400 μg/ml, Gibco) selection for 20 days, colonies were stained with 0.5% crystal violet. Colony size was measured in duplicate dishes in three independent experiments. For subcellular localization, pCS2-Myc frog Gli2, […], human GLI3 and human GLI3C′ΔCla1 (Ruiz i Altaba, 1999) were transfected into COS-7 (ATCC) cells with our without HRAS (V12).

In the next assay the test system is Frog Gli2. In words: localization of myc-tagged GLI proteins in transfected COS-7 cells. Type of assay: cell-based. The conditions noted are these: Gli2+RAS*+inhibitor, 1 hr. Here is the method: as §2
The test system of assay [9] is Human GLI3Rep (GLI3C′ΔCla1). The assay is described as above. It counts as cell-based. Particulars: GLI3Rep+RAS*+inhibitor, 1 hr. The protocol:
as §2

The test system of a further assay is Me-3, SK-Mel2 and WM-115. Description: BrdU incorporation after MEK1 or AKT inhibitors (Example 2). The conditions noted are these: 48 h. Type of assay: cell-based, human. Here is the method:
WM-115, SK-MEL-2 and COS7 cell lines (ATCC) were grown according to the specifications of the provider. The primary Me-3 melanoma (Stecca, B. et al. Melanocyte proliferation and melanoma growth, recurrence and metastasis require sustained SONIC HEDGEHOG-GLI signaling. Submitted. (2006)) was grown in E-MEM with 10% FBS (Hyclone), 1 mM sodium pyruvate (GIBCO) and 1 ng/ml EGF (GIBCO). Proliferating human melanocytes from foreskin (Promocell) were grown in M2 media (Promocell). Melanomas from ±6 month-old Tyr→NRAS^Q61K; Ink4a^−/− mice on a light coat color Dct^−/− background^13 were collected from the skin and lymph nodes. Tumors were dissociated and grown in E-MEM with 10% FBS, 1 mM sodium pyruvate (GIBCO) and 1 ng/ml EGF (GIBCO). Mouse embryonic fibroblasts (MEFs) were prepared from E14.5 Swiss Webster mouse embryos and grown in DMEM with 10% FBS.
Forskolin (FK) and 1,9-dideoxyforskolin (ddFK; Sigma) were used at 50 μM. MEK-1 (U0126; Promega), and AKT (SH6; Alexis corporation) inhibitors were used at 1 and 40 μM, respectively, dissolved in DMSO. U0126 and SH6 were used for 1 h, 48 h post-transfection. Leptomycin B (LMB; Sigma) was used at 5 nM for 6 h, 48 h post-transfection. BrdU (Sigma) was pulsed at 4 μg/ml for 2 h before fixation followed by immunodetection with anti-BrdU antibodies (BD Biosciences). The number of viable cells was assessed by Trypan blue exclusion (Promega). […]

The test system of a further assay is SK-Mel2 cells. Description: Propidium iodide FACS analyses. It counts as cell-based, human. The conditions noted are these: 24 h, compared to DMSO-treated cells.
A further assay relates to GLI1 and PTCH1 mRNA. Description: qPCR of GLI1 and PTCH1 mRNA after MEK-1 or AKT inhibitors. Particulars: 4 h after treatment. It counts as cell-based, human. The protocol: Real-time quantitative PCR amplifications with different primers were carried out at 60° C. on an Opticon machine (MJ Research) using iQTM SYBR Green supermix (Biorad) and values calculated using the standard curve method. Human primer sequences were 5'→3': […] NO: 5) and […] NO: 6); […] NO: 11) and […] NO: 41) and NRAS-R: […] NO: 44); […] NO: 33) and […] NO: 34). For mice: […] NO: 45) and […] NO: 46); Sufu-[…] NO: 47) and Sufu-[…] NO: 48); […] NO: 49) and […] NO: 50); Tyrosinase-[…] NO: 51) and Tyrosinase-[…] NO: 53) and […] NO: 54); […] NO: 55) and […] NO: 56). […] Promega), and AKT (SH6; […] […] Control siRNA: […] […] Proc. Natl. Acad. Sci. USA.

In a further assay the test system is GLI1, GLI3, GLI3R. Description: localization of transfected GLI proteins in SK-Mel2 cells. Type of assay: cell-based, human. The protocol: (§3) Forskolin (FK) and 1,9-dideoxyforskolin (ddFK; Sigma) were used at 50 μM. MEK-1 (U0126; Promega), and AKT (SH6; Alexis corporation) inhibitors were used at 1 and 40 μM, respectively, dissolved in DMSO. U0126 and SH6 were used for 1 h, 48 h post-transfection. Leptomycin B (LMB; Sigma) was used at 5 nM for 6 h, 48 h post-transfection. BrdU (Sigma) was pulsed at 4 μg/ml for 2 h before fixation followed by immunodetection with anti-BrdU antibodies (BD Biosciences). The number of viable cells was assessed by Trypan blue exclusion (Promega). […] (SEQ ID NO: 57) (target-validated from Ambion). […] SEQ ID NO: 58) (Sanchez, P. et al. Inhibition of prostate cancer proliferation by interference with SONIC HEDGEHOG-GLI1 signaling. Proc. Natl. Acad. Sci. USA. 101, 12561-12566 (2004)). siRNA transfections (0.2 μM) were performed with Oligofectamine (Invitrogen) for 48 h.
Cells were transfected (3 μg/p35 plate) with myc-tagged full-length CMV expression vectors with FUGENE (Roche). Transfections were at equimolar amounts unless otherwise specified with combinations of pCS2-Myc-tagged human GLI1, GLI3, GLI3R (GLI3C′ΔClaI), frog Gli2R (Gli2C′) (Ruiz i Altaba, A. Gli proteins encode context-dependent positive and negative functions: implications for development and disease. Development 126, 3205-3216 (1999), pCMV-HA-tagged GLI1 (ref. 20), HRAS^V12G (from A. Pellicer), NRAS^Q61K (Ackermann, J. et al. Metastasizing melanoma formation caused by expression of activated N-RasQ61K on an INK4a-deficient background. Cancer Res. 65, 4005-4011 (2005)), activated (myristoylated) myc-tagged AKT1 (Upstate), activated MEK1 (p45MAPKK^S222D; from J. Pouyssegur), Myc-tagged SUFUH (Kogerman, P. et al. Mammalian suppressor-of-fused modulates nuclear-cytoplasmic shuttling of Gli-1. Nat Cell Biol. 1, 312-319 (1999)), and pCMV-eGFP or pCMV-lacZ.

The subject of a further assay is GLI1. Description: localization of transfected GLI1 in COS7 cells (Example 2). Type of assay: cell-based, monkey. The conditions noted are these: inhibitors for 1 h. Here is the method: as §3
Cells were transfected (3 μg/p35 plate) with myc-tagged full-length CMV expression vectors with FUGENE (Roche). […]

For another assay, the system named is all forms of MEK. The conditions noted are these: cited from earlier work.

As for `CSCC[C@H](NC(=O)c1ccc(NC[C@@H](N)CS)cc1-c1ccccc1)C(=O)O` [FTI-276], the “GROWTH INHIBITION” value in assay [1] (70 mg/kg/d) is 70%-94%; in [1] (10, 50, 100 mg/kg/d), 75%; in the assay on A/J mice lung adenomas, 58%.
With `COC(=O)[C@H](CCSC)NC(=O)c1ccc(NC[C@@H](N)CS)cc1-c1ccccc1` [FTI-277], in the assay with Glioma cell lines, the IC50 is 2 to 15.5 µM. For the same compound, in [1] (50 mg/kg/d, lung (A-549, Calu-1) tumors, NIH3T3), the “GROWTH INHIBITION” value is recorded as 80%.
As to `CC(C)=CCC/C(C)=C/CC/C(C)=C/CSc1ccccc1C(=O)O` [FTS, S-farnesylthiosalicyclic acid], the IC50 is 30 to 40 µM with Rat-1 cells and 100 µM in assay [2]. In assay [3] (5 mg/kg/d), the “GROWTH INHIBITION” value is reported as 82-90% of controls. Moreover, the “growth of human melanoma in SCID mice” value in assay [3] (mouse, in vivo) was “significant reduction in the growth”.
For `O=C(Cc1ccncc1)N1CCC(=C2c3ccc(Cl)cc3CCc3cccnc32)CC1` [SCH44342], in assay [4], the IC50 is 1 µM.
With `N#CC(=C(N)Sc1ccccc1N)C(C#N)=C(N)Sc1ccccc1N` [U0126, 1,4-diamino-2,3-dicyano-1,4-bis[2-aminophenylthio]butadiene], the BrdU incorporation result in [5] was “decreased BrdU incorporation”; with Me-3, SK-Mel2 and WM-115, “decreased BrdU incorporation”. Moreover, in assay [6], the “GLI1 and PTCH1 levels” value is “reduction of GLI1 and PTCH1 levels”. The “effect on GLI1-enhanced proliferation” value in [7] is given as “reversed”. Also, in assay [8], the “localization of transfected GLI proteins without co-transfected RAS” value is “did not change the localization”. The “effect on RAS-enhanced nuclear accumulation of GLI proteins” value in assay [8] (treatment for 1 h, 24 h after transfection) was “reversed”. Moreover, the “cells with cytoplasmic (c) localization” value is 30% with Frog Gli2 and 1% in assay [9]. In addition, the “decrease in the number of dividing cells (S/G2/M)” value in the assay on SK-Mel2 cells worked out at 30%. Besides, the “GLI1 and PTCH1 mRNA levels” value in the assay on GLI1 and PTCH1 mRNA was “rapid reduction of GLI1 and PTCH1 mRNA levels”. Moreover, the “localization of the constitutively nuclear GLI3R” value in the assay with GLI1, GLI3, GLI3R was “no effect”. Also, the “localization of GLI1” value in the assay with GLI1, GLI3, GLI3R (inhibitors for 1 h) is “increasing cytoplasmic localization of GLI1”. In the assay with GLI1, GLI3, GLI3R (inhibitors for 1 h), the “localization of GLI3” value is recorded as “unaffected”. For the same compound, the “effect on oncogenic RAS-induced nuclear accumulation of GLI1” value in the assay on GLI1 is given as “reversed”. Besides, the “higher affinity than PD 098059” value with all forms of MEK is 44- to 357 fold.
